Results as given in the NIST ThermoML archive (doi:10.1016/j.fluid.2016.08.036).
Numbers after ± are expanded uncertainties.

Assay: mn = molality of the nth substance listed, in mol/kg
Conditions: 87 kPa, Liquid, Vibrating tube method

CCn1cc[n+](C)c1.O=S(=O)([O-])O [1-ethyl-3-methylimidazolium hydrogen sulfate] + O
mass density [kg/m3]
Conditions	m1 = 0.0363	m1 = 0.0687	m1 = 0.1026	m1 = 0.1384	m1 = 0.1716	m1 = 0.2049	m1 = 0.2391	m1 = 0.2718	m1 = 0.3034	m1 = 0.3375
293.15 K	1000.86 ± 6	1003.08 ± 6	1005.3 ± 6	1007.57 ± 6	1009.63 ± 6	1011.67 ± 6	1013.72 ± 6	1015.68 ± 6	1017.53 ± 6	1019.54 ± 6
298.15 K	999.65 ± 6	1001.82 ± 6	1003.99 ± 6	1006.22 ± 6	1008.23 ± 6	1010.23 ± 6	1012.24 ± 6	1014.17 ± 6	1016 ± 6	1017.98 ± 6
303.15 K	998.2 ± 6	1000.33 ± 6	1002.46 ± 6	1004.64 ± 6	1006.63 ± 6	1008.6 ± 6	1010.58 ± 6	1012.47 ± 6	1014.26 ± 6	1016.21 ± 6
308.15 K	996.54 ± 6	998.63 ± 6	1000.73 ± 6	1002.87 ± 6	1004.82 ± 6	1006.76 ± 6	1008.7 ± 6	1010.58 ± 6	1012.34 ± 6	1014.25 ± 6
313.15 K	994.68 ± 6	996.73 ± 6	998.8 ± 6	1000.91 ± 6	1002.83 ± 6	1004.74 ± 6	1006.66 ± 6	1008.5 ± 6	1010.24 ± 6	1012.13 ± 6
